# In patent US9901650B2, “Methods for evaluating brain-wide paravascular pathway for waste clearance function and methods for treating neurodegenerative disorders based thereon” (University of Rochester, priority 2013, dated 2018):
# Entries after “also recorded” stand apart in the source; their conditions may differ. Where two headings read alike, the source gives them in different places. No end group written: not given here.
# Legend:
# [1] = rat, in vivo
# Experimental: (§1) Sprague Dawley rats (2-3 month old females) were anesthetized with phenobarbital and lumbar intrathecal catheters placed. Imaging was performed using a custom-built, MRI-compatible PET scanner for the rat brain in combination with a 9.4T microMRI (ref). […] The PET ring (ID 38 mm and accommodating the head of a rat) consists of 12 detector blocks consisting of a 4×8 array of 2.22×2.22×5 mm^3 lutetium oxyorthosilicate (LSO) crystals assembled with a thin reflective foil and coupled to a matching non-magnetic S8550 APD array (ref). PET data are transferred via optical fibers to an external (PCI)-based data acquisition board (ref). For simultaneous PET/MRI imaging a custom-made volume RF coil which fits inside the PET ring was used. The 9.4T microMRI used in all experiments is a superconducting horizontal bore magnet (Bruker Biospin 94/20, 400 MHz, Magnex scientific) interfaced to a Bruker Advance console and controlled by Paravision 5.0 software (Bruker Bio Spin, Billerica, Mass.). The magnet is equipped with an actively shielded combined RT-shim and gradient system (B-GA 12S) that can produce a maximum gradient strength of 200 mT/m. […]
# [2] = K-means cluster analysis of contrast-enhanced MRI, 4 mid-sagittal slices
# Experimental: Non-parametric segmentation to group voxels in the MRI images on the basis of similar kinetics was performed using a k-means cluster algorithm (PMOD Version 3.307, PMOD Technologies, Ltd, Zurich, Switzerland) on four sagittal slices at the level of the aqueduct from each of the 4D T1-weighted MRIs. A volume-of-interest mask containing the brain only was created for the cluster analysis. The number of clusters (K) used was determined by the K which was able to segment out voxels adjacent to the large vessels such as basilar artery (including pituitary recess) and olfactory artery complex. This was done on an interactive, per animal basis.
# All data are presented as mean±SD.
# [3] = Dynamic integrated MRI-PET imaging after intrathecal infusion; settings: lumbar intrathecal infusion
# Experimental: as §1
# [4] = Dynamic contrast-enhanced MRI after intrathecal infusion of paramagnetic contrast: regional tissue uptake (TACs, mAUC)
# Experimental: Female Sprague Dawley rats were used (Taconics, body weight: 220-280 g). For anesthesia, the animals were induced with 3% isofluorane in oxygen using an induction chamber and then received an intra-peritoneal injection of 40 mg/kg […] (Nembutal® Sodium solution, OVATION, Pharmaceuticals, Inc., Deerfield, Ill., USA). The animals were allowed to breathe spontaneously during the entire experiment. Non-invasive monitors (pulse-oximetry, respiratory rate and rectal temperature probe, SA Instruments, Inc., Stony Brook, N.Y.) were placed to assure adequate oxygenation (O2-saturation>97%), ventilation (respiratory rate 50-65 breath per minute) and normal body temperature (36.5° C.-37.5° C.) during the surgical procedures. A 24-gauge catheter was inserted into the tail vein for administration of fluids and supplemental anesthesia. The animal was positioned in a stereotaxic frame (Kopf Instruments, frame #9) and the head flexed to 50 degrees. For the brief surgical procedure, anesthesia was supplemented with isoflurane (0.8-1.2%) delivered in an 1:1 O2:Air mixture.
# The atlanto-occipital membrane was exposed via a midline dorsal neck incision and a small incision was made to expose the underlying dura mater. A polyethylene catheter (6-cm long, 0.28 mm ID×0.61 mm OD, (Solomon Scientific, Plymouth Meeting, Pa.)) filled with normal saline was advanced 1-mm into the intrathecal space via a small durotomy made using a 23-gauge needle and was fixed and sealed with super glue. The skin incision was closed around the catheter.
# Following surgery, the rats were flipped supine and positioned in a custom-made acrylic cradle fitted with a head fixation device and a snout mask for delivery of supplemental oxygen. The head of the animal was positioned on top of a 3.0 cm custom-made radio-frequency (rf) receiver coil. Non-invasive, MRI compatible monitors (pulse-oximetry, respiratory rate and rectal temperature probe, SA Instruments, Inc., Stony Brook, N.Y.) were repositioned for continuous monitoring of vital signs while the animal underwent MRI imaging. During imaging, body temperature was kept strictly within 36.5-37.5° C. during imaging using a computer assisted air heating system (SA Instruments, Inc., Stony Brook, N.Y.). The intrathecal catheter was connected to a long PE 20 line filled with paramagnetic MR contrast diluted in 0.9% NaCl attached to a 1 cc-syringe and microinfusion pump (Baxter Model AS50 infusion Pump, Baxter Healthcare Corporation, Illinois, USA). The tail vein catheter was used for maintenance hydration (0.9% NaCl, 4 cc/kg/hr) and supplemental anesthesia (Nembutal®, 5-10 mg/kg IV) administered every 2 hrs as guided by the respiratory rate.
# All imaging protocols were performed on a 9.4T/20 MRI instrument interfaced to a Bruker Advance console and controlled by Paravision 5.0 software (Bruker Bio Spin, Billerica, Mass.). A custom-made 3-cm surface radio-frequency coil was used as a receiver and a 16-cm diameter volume coil (Bruker) was used as a transmitter. […] For all experiments a 60 mM (1:8 volume ratio diluted in 0.9% NaCl) Gd-DTPA phantom placed in the vicinity of animal's head was used for image intensity normalization over the time series. […] A total of 80 μl of the paramagnetic contrast agent was delivered intrathecally at an infusion rate of 1.6 μl/min (total infusion time: 50 min). After completion of the intrathecal infusion, the 3D MRI acquisitions continued over 3.9 hrs. At the end of the experiment the animal was euthanized with an overdose of Nembutal.
# The general MRI image processing procedure consisted of head motion correction, intensity normalization, smoothing and voxel-by-voxel conversion to % of baseline signal. SPM8 (World Wide Web at fil.ion.ucl.ac.uk/spm) was used for this. First, the acquired T1-weighted MRI images were exported as DICOM files and converted to 3D Nlfti image format.
# [5] = test system: glymphatic system; experiment: Brain clearance of 125I-Aβ40 and 14C-inulin after injection into the frontal cortex, pharmacological intervention; assay type: in vivo, mice
# Experimental: The role of RAS on clearance of exogenous ^125I-Aβ and ^14C-inulin were determined at 30 minutes after their injection into the frontal cortex (Xie et al., 2013).
# Briefly, a stainless steel guide cannula was implanted stereotaxically into the right caudate-putamen or frontal cortex of anesthetized mice (ketamine (100 mg/kg) and xylazine (10 mg/kg). For the frontal cortex, the coordinate of the cannula tip was 0.7 mm anterior and 3.0 mm lateral to the bregma, and 1.3 mm below the surface of the brain. Animals were allowed to recover after surgery. The experiments were performed before substantial chronic process occurred, but allowing time for the BBB repair to large molecules, as reported (Deane et al., 2004). Drugs were pre-injected for 10 minutes before injection of the radio-labeled molecules.
# Injection of the mixture of tracers: Mock CSF (0.5 μL) containing ^125I-labeled Aβ40 (10 nM monomer) together with ^14C-inulin (0.05 μCi, an inert molecule for bulk flow) was microinfused into brain ISF over 5 minutes.
# At the end of the experiments brain was removed and prepared for radioactivity analysis and TCA analyses.
# ^125I-radioactivities were determined in a gamma counter (Wallac Vizard Gamma Counter, Perkin Elmer). For ^14C-counting, the samples were solubilized in 0.5 ml tissue solubilizer (Perkin Elmer) overnight, followed by addition of 5 ml of scintillation cocktail (Packard Ultima Gold) and analyzed in a liquid scintillation counter (Beckman Coulter Counter).
# All calculations of clearance parameters were carried out as described above or by routine methods (Deane et al., 2004; Xie et al., 2013). Briefly, the percentage of radioactivity remaining in the brain after microinjection was determined as % recovery in brain=100×(Nb/Ni), where Nb is the radioactivity remaining in the brain at the end of the experiment and Ni is the radioactivity injected into the brain ISF, i.e., the d.p.m. for ^14C-inulin and the c.p.m. for the TCA-precipitable ^125I-radioactivity. Inulin was used as a metabolically inert polar molecule which is neither transported across the BBB nor retained by the brain; its clearance rate provides a measure of the ISF convective bulk flow. For each group there were 3-6 mice, and data expressed as mean±SEM. P<0.5 was taken as statistically significant as determined using T-test.
# [6] = test system: glymphatic system; experiment: Brain influx of 125I-Aβ40 and 14C-inulin after injection into the cisterna magna, pharmacological intervention; assay type: in vivo, mice
# Experimental: The role of RAS on the influx of these molecules into brain was determined by injecting these molecules into the subarachnoid space (cisterna magna) and determining brain levels after 30 minutes.
# A small volume (5 μL) of mock CSF containing ^125I-Aβ40 (10 nM) and ^14C-inulin (0.05 μCi) was microinjected into the cistern magna at 1 μL/min. At the end of the experiment (30 minutes) the brain was removed and analyzed for radioactivity.
# [7] = test system: AQP4-M1 expression; experiment: AQP4-M1 expression by qPCR in cultured primary cortical astrocytes; assay type: cell-based, mouse; settings: vs. control; siRNA transfected for six days
# From the text: (A) The Aqp4 gene has two transcription initiation site, with transcription initiated at each site resulting in two AQP4 mRNA variants: AQP4-M1 which includes Exons 0-4 of the Aqp4 gene and AQP4-M23 which lacks Exon 0. (B) AQP4-M23 (the predominant form in the CNS under physiological conditions) permits perivascular AQP4 packing while AQP4-M1 prevents it; thus increasing AQP4-M1 expression impairs AQP4 polarization (Crane et el. J Biol Chem 2009; Furman et al. Proc Nat Acad Sci 2003). (C) The expression of AQP4-M1 was evaluated by real-time quantitative PCR (qPCR) in the mouse ipsilateral cortex 3 days after TBI using PCR primers specifically targeting Exon 0 of the AQP4-M1 transcript. Compared to AQP4-M1 expression in the control (sham) cortex, TBI increased AQP4-M1 expression by approximately two-fold (*P<0.05, t-test; n=5 per group). (D) Using an siRNA-based approach targeting Exon 0 of the AQP4-M1 variant, the expression of AQP4-M1 could be efficiently knocked down in cultured primary mouse cortical astrocytes. Three siRNA duplexes were designed to target Exon 0 of the AQP4-M1 transcript, and primary mouse astrocytes were transfected with these siRNA duplexes for six days. […] Thus, we tested whether inhibition of STAT3 signaling in primary mouse cortical astrocytes could reduce AQP4-M1 expression. […]
# [8] = Intra-striate radio-tracer injection: interstitial solute clearance from the brain, wild type vs Aqp4-null
# Experimental: To evaluate the pathways and rates of interstitial fluid and solute clearance from the brain, fluorescent and radio-labeled tracers were injected stereotactically into the brain parenchyma. Anesthetized animals were fixed in a stereotaxic frame and a 33GA needle was inserted via a small burr hole into the brain at the following coordinates: intra-cortical injections (0.22 mm caudal, 2.0 mm lateral, 1.75 mm ventral to bregma), intra-striate injections (0.22 mm caudal, 2.5 mm lateral, 3.5 mm ventral to bregma), intrathalamic injections (1.82 mm caudal, 1.25 mm lateral, 3.75 mm ventral to bregma). After needle insertion, 30 minutes was allowed to elapse to allow the needle track to swell closed. 1.0 μl of tracer (dissolved in artificial CSF) was injected at a rate of 17 nl/min.
# 15 min, 30 min, 1 h or 2h later, the animal was rapidly decapitated and the brain harvested. The brain was solubilized as above, and the radioactivity present in the brain was measured by liquid scintillation spectrometry. All radioactivity values were normalized to 1 μl injection standards taken immediately prior to each intra-parenchymal injection.
# [9] = Intracisternal radio-tracer injection: accumulation in the brain parenchyma
# Experimental: Anesthetized mice were fixed in a stereotaxic frame and a 30GA needle was inserted into the cisterna magna. For intracisternal injections, 10 μl of CSF tracer was injected at a rate of 2 μl/min over 5 minutes with a syringe pump (Harvard Apparatus).
# After 15, 30 or 45 minutes, animals were rapidly decapitated, the skull opened, the dura removed and the brain harvested. The brain was solubilized in 2 ml Soluene (Sigma) at 45° C. overnight. 10 ml Hionic Fluor liquid scintillation cocktail (Perkin Elmer) was added and radioactivity was measured in a Multipurpose Scintillation Counter (Beckman Coulter). Brain radioactivity was normalized to total radioactivity detected in a 10 μl aliquot put directly into a scintillation vial immediately before intracisternal radio-tracer injection and expressed as the % of total injected radioactivity. ^3H-mannitol and ^3H-dextran accumulation in the brain was compared by 2-way ANOVA with Bonferroni's post-hoc test.
# [10] = ratio of average mAUC of region to average mAUC of pituitary recess, mean ± SD
# [11] = agent 1 μM, 30 minutes, frontal cortex
molecule,measurement,setting,value
2-deoxy-2-(^18F)fluoro-D-glucose [^18FDG],transport through the brain-wide glymphatic pathway,[1],moves rapidly through the brain-wide glymphatic pathway
"CNC[C@H](O)[C@@H](O)[C@H](O)[C@H](O)CO.CNC[C@H](O)[C@@H](O)[C@H](O)[C@H](O)CO.O=C([O-])CN(CCN(CC(=O)[O-])CC(=O)O)CCN(CC(=O)[O-])CC(=O)O.[Gd+3] [Gd-DTPA, 1-deoxy-1(methylamino)D-glucitol dihydrogen [N,N-bis[2-[bis(carboxymethyl)amino]ethyl]glycinato (5-)]gadolinite(2-)(2:1)]","#Voxels - Zone 3, mean (SD)",[2]; most distally labeled voxels,18295 (7407)
same,"#Voxels - Zone 1, mean (SD)",[2]; para-vascular zone,4048 (2146)
same,"Zone 2#Voxels*AUC/Zone 1#Voxels*AUC, mean (SD)","[2]; rat, in vivo",1.62 (0.60)
same,time-to-peak of the para-vascular red cluster,"[2]; rat, in vivo",~90 min
same,"#Voxels - Zone 2, mean (SD)",[2]; tissue adjacent to zone 1,15835 (5690)
same,transport through the brain-wide glymphatic pathway,[3],with some ‘restriction’
same,mAUC at the pituitary recess,"[4]; not normalized, mean ± SD",743±266 % signal change per time interval
same,time at which average uptake in the cerebellum peaked / reached apparent plateau,[4]; post-injection,~90 min
same,time of peak of signal changes induced within the parenchyma,[4]; post-injection,60 to 80 min
same,"mAUC, Aqueduct",[4]; [10],0.34 ± 0.23
same,"mAUC, Cerebellum",[4]; [10],0.28 ± 0.11
same,"mAUC, Olfactory Bulb",[4]; [10],0.24 ± 0.11
same,"mAUC, Pontine Nucleus",[4]; [10],0.17 ± 0.09
same,"mAUC, Pineal recess","[4]; ratio of average mAUC of region to average mAUC of pituitary recess, mean ± SD, intrathecal infusion",1.01 ± 0.35
CC(=N)NCCCC[C@H](N)C(=O)O [L-NIL],clearance of Aβ,[5]; 1 mM,increased
same,clearance of inulin,[5]; 1 mM,increased
same,influx of Aβ with dose,"[6]; mouse, in vivo",dose dependent increase
same,influx of inulin with dose,"[6]; mouse, in vivo",dose dependent increase
O=[N+]([O-])c1ccc2c(c1)S(=O)(=O)C=C2 [STATTIC],AQP4-M1 expression,[7],significantly reduced
OC[C@@H](O)[C@@H](O)[C@H](O)[C@H](O)CO [[^3H]mannitol],reduction of clearance from the brain interstitium in Aqp4-null mice compared to wild type,[8]; intra-striate injection,~70%
same,"approximate maximal influx, plateau of one-phase association fit","[9]; % of total injected radioactivity, R2=0.3597",39.96±5.55%
same,proportion of injected tracer detectable in the brain,[9]; within 45 min of intracisternal injection,~40%
NC(=O)CC[C@@H]1NC(=O)[C@H](Cc2ccccc2)NC(=O)[C@H](Cc2ccc(O)cc2)NC(=O)[C@@H](N)CSSC[C@@H](C(=O)N2CCC[C@H]2C(=O)N[C@@H](CCCN=C(N)N)C(=O)NCC(N)=O)NC(=O)[C@H](CC(N)=O)NC1=O [vasopressin],brain clearance of Aβ,[5]; [11],reduced
same,brain clearance of inulin,[5]; [11],reduced
^125I-amyloid β1-40: radio-labeled amyloid β1-40 peptide tracer,"rate of clearance from the brain in wild-type mice, in words","[8]; mouse, in vivo",exceeded that of either [^3H]mannitol or [^3H]dextran-10
same,reduction of clearance from the brain interstitium in Aqp4-null mice compared to wild type,"[8]; mouse, in vivo",~55%
same,"accumulation in the brain after intracisternal injection, in words","[9]; mouse, in vivo",increased in a manner comparable to [^3H]dextran-10
"angiotensin (1-7): active angiotensin metabolite acting on the Mas receptor; opposes angiotensin II (DRVYIHP; Angiotensin 1-7; UniProt P01019 25-31, looked up)",clearance of Aβ at 15 minutes,"[5]; 1 nM and 10 nM, 15 minute time point",increased; also recorded: greater change between concentrations 10 nM and 1 nM
same,clearance of Aβ with dose,"[5]; 1 μM, 0.1 μM and 0.01 μM, pre-injected into frontal cortex, 30 minutes",increased progressively with dose
angiotensin II: peptide of the renin-angiotensin system acting on AT1R and AT2R,brain clearance of Aβ,[5]; [11],reduced
same,brain clearance of inulin,[5]; [11],reduced
same,levels of Aβ40 remaining in brain (recovery),[5]; [11],increase
same,levels of inulin remaining in brain (recovery),[5]; [11],increase
same,influx of Aβ40 into brain,"[6]; agent 1 μM injected into the cistern magna, 30 minutes",decrease
same,influx of inulin into brain,"[6]; angiotensin II 1 μM, losartan route not given, 30 minutes",decrease
"atrial natriuretic peptide (ANP): a peptide that reduces body water and sodium (SLRRSSCFGGRMDRIGAQSGLGCNSFRY; ends and bridges not checked; cysteine pairing not given here; UniProt P01160 124-151, looked up)",brain clearance of Aβ,[5]; [11],reduced
same,brain clearance of inulin,[5]; [11],reduced
